The term Ki denotes the equilibrium dissociation constant of an inhibitor or competing ligand from its target.

The source of these data is patent US8604046B2, “Substituted piperidine spiro pyrrolidinone and piperidinone, preparation and therapeutic use thereof” (Sanofi, priority 2008, dated 2013).

Assay [1] has as its target T1, rhesus H3 receptor (Macaca mulatta, UniProt Q865E1). Nature of the assay: Rhesus H3 [3H]-methylhistamine radioligand binding assay. Set-up: species or system rhesus monkey (Macacca Mulatta). The settings on record: [3H]-Methylhistamine 2 nM, rhesus H3 membranes, WGA SPA beads, Cheng-Prusoff. The method, then: (§1) Rhesus H3 membranes were prepared from the Flp-In T-REx 293 Cell Line (Invitrogen) stably transfected with pcDNA5/FRT/TO (Invitrogen) containing the rhesus monkey (Macacca Mulatta) 445 amino acid H3 receptor. (Genbank #AY231164). Stably transfected cultures were amplified in tissue culture flasks by standard tissue culture methods and induced to express rhesus H3 by exposure to 500 ng/ml tetracycline (Cellgro) for 24 hours. After induction, cells were dissociated from flasks utilizing Cell Stripper (Cellgro). Cells were centrifuged (1K×g, 5 min) and pellet frozen in an ethanol-dry ice bath to disrupt cell membranes. Frozen cell pellet was re-suspended in 5 mM HEPES (pH 7.4, Invitrogen) at 10 ml/1000 cm2 of harvested cells. The cell suspension was drawn through an 18 gauge needle (2-3×) followed by a 23 gauge needle (2-3×) to further disrupt cell membranes. The cell suspension was centrifuged (40K×g, 30 min). Cell membrane pellet was re-suspended in 5 mM HEPES (pH 7.4, Invitrogen) at a final protein concentration of 10 mg/ml. Rhesus H3 membranes were stored under liquid nitrogen prior to use in [3H]-Methylhistamine and GTP S radioligand binding assays.
Rhesus H3 radioligand binding assay was performed using rhesus H3 receptor membranes (prepared as described above), [3H]-Methylhistamine (Perkin Elmer) and WGA SPA beads (wheat germ agglutinin scintillation proximity assay) beads (Amersham). The assay was performed in 96-well Opti-Plates (Packard). Each reaction contained 50 μl rhesus H3 membranes (20-30 μg total protein), 50 μl WGA SPA beads (0.1 μg) and 50 μl of 83 Ci/mmol [^3H]-Methylhistamine (final concentration 2 nM) and 50 μl of tested compound. The compounds of this invention and/or vehicle were diluted with binding buffer from 10 mM DMSO stocks. Assay plates were sealed with TopSeal (Perkin Elmer) and mixed on shaker (25° C., 1 hour). Assay plates were read on TopCount scintillation counter (Packard). Results were analyzed by Hill transformation and Ki values were determined by Cheng-Prusoff equation.

The target of assay [2] is T1, rhesus H3 receptor. Description: GTPγS radioligand binding assay, inhibition of rhesus H3 constitutive functional activity (inverse agonism). In kind it is biochemical, rhesus monkey (Macacca Mulatta). Set-up: concentration or dose not given beside the values. The settings on record: rhesus H3 cell membranes, relative to basal levels. The method, then: as §1

T1 sequence (Q865E1 1-445): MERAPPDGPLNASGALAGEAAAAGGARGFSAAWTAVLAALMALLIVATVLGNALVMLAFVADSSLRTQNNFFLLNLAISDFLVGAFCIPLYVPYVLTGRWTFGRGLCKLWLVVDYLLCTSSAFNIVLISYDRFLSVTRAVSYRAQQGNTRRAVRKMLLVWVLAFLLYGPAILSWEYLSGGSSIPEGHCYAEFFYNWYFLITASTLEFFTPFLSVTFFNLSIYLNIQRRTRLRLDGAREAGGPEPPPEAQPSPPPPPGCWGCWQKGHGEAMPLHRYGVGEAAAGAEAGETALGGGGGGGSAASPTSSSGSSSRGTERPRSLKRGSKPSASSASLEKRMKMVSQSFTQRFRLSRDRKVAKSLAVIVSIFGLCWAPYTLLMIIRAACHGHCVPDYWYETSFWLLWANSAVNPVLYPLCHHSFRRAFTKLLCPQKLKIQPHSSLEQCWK

At rhesus H3 receptor [1], `COCC(=O)N1CCC2(CC1)CCN(c1ccc(N3CC[C@H](N4CCC[C@@H]4C)C3)cc1C(F)(F)F)C2=O` [Example 61, 8-(2-Methoxy-acetyl)-2-[4-((2S,3′S)-2-methyl-[1,3′]bipyrrolidinyl-1′-yl)-2-trifluoromethyl-phenyl]-2,8-diaza-spiro[4.5]decan-1-one] yielded a Ki of 193 nM. Also, on rhesus H3 receptor [2], the “Inverse Agonism: % inhibition of Basal GTPγS binding in Rhesus H3” value (“Inverse Agonism: % inhibition” for short) is −7%.
On the same counts, the results for `Cc1cc(N2CC[C@@H](N3CCC[C@@H]3C)C2)ccc1N1CCC2(CCN(C(=O)c3ccc(OC(F)(F)F)cc3)CC2)C1=O` [Example 17, 2-[2-Methyl-4-((2S,3′R)-2-methyl-[1,3′]bipyrrolidinyl-1′-yl)-phenyl]-8-(4-trifluoromethoxy-benzoyl)-2,8-diaza-spiro[4.5]decan-1-one] are 1.4 nM and −9%.
On the same counts, the results for `C[C@H]1CCCN1[C@H]1CCN(c2ccc(N3CCCC4(CCN(CC5CC5)CC4)C3=O)cc2)C1` [Example 34, 9-Cyclopropylmethyl-2-[4-((2S,3′S)-2-methyl-[1,3′]bipyrrolidinyl-1′-yl)-phenyl]-2,9-diaza-spiro[5.5]undecan-1-one] are 0.2 nM and −16%.
For `C[C@H]1CCCN1C1CCN(c2ccc(N3CCC4(CCN(CC5CC5)CC4)C3=O)c(F)c2)CC1` [Example 56, 8-Cyclopropylmethyl-2-{2-fluoro-4-[4-(2S-2-methyl-pyrrolidin-1-yl)-piperidin-1-yl]-phenyl}-2,8-diaza-spiro[4.5]decan-1-one], in that order: 0.04 nM and −23%.
Consider `C[C@H]1CCCN1[C@H]1CCN(c2ccc(N3CCCC4(CCN(C5CCOCC5)CC4)C3=O)cc2)C1` [Example 35, 2-[4-((2S,3′S)-2-Methyl-[1,3′]bipyrrolidinyl-1′-yl)-phenyl]-9-(tetrahydro-pyran-4-yl)-2,9-diaza-spiro[5.5]undecan-1-one], for which the inhibition constant Ki on rhesus H3 receptor [1] is 0.04 nM. Besides, the “Inverse Agonism: % inhibition” value at rhesus H3 receptor [2] is −18%.
Turning to `C[C@H]1CCCN1[C@H]1CCN(c2ccc(N3CCC4(CCN(CC5CC5)CC4)C3=O)c(C(F)(F)F)c2)C1` [Example 67, 8-Cyclopropylmethyl-2-[4-((2S,3′S)-2-methyl-[1,3′]bipyrrolidinyl-1′-yl)-2-trifluoromethyl-phenyl]-2,8-diaza-spiro[4.5]decan-1-one], at rhesus H3 receptor [1], the Ki came to 1.4 nM. At rhesus H3 receptor [2], the “Inverse Agonism: % inhibition” value is −12%.
As to `C[C@H]1CCCN1[C@H]1CCN(c2ccc(N3CCCC4(CCN(Cc5ccccc5)CC4)C3=O)c(F)c2)C1` [Example 36, 9-Benzyl-2-[2-fluoro-4-((2S,3′S)-2-methyl-[1,3′]bipyrrolidinyl-1′-yl)-phenyl]-2,9-diaza-spiro[5.5]undecan-1-one], the affinity at rhesus H3 receptor [1], expressed as Ki, was 0.06 nM. Besides, the “Inverse Agonism: % inhibition” value at rhesus H3 receptor [2] is −13%.
For `C[C@H]1CCCCN1[C@H]1CCN(c2ccc(N3CCC4(CCNCC4)C3=O)c(F)c2)C1.Cl` [Example 49, 2-{4-[3-((2S,3′S)-2-Methyl-piperidin-1-yl)-pyrrolidin-1-yl]-2-fluoro-phenyl}-2,8-diaza-spiro[4.5]decan-1-one Hydrochloride], in that order: 0.5 nM and −22%.
On the same counts, the results for `C[C@H]1CCCN1[C@H]1CCN(c2ccc(N3CCC4(CCNCC4)C3=O)c(C(F)(F)F)c2)C1.Cl` [Example 69, 2-[4-((2S,3′S)-2-Methyl-[1,3′]bipyrrolidinyl-1′-yl)-2-trifluoromethyl-phenyl]-2,8-diaza-spiro[4.5]decan-1-one Hydrochloride] are 0.09 nM and −28%.
On the same counts, the results for `C[C@H]1CCCCN1[C@H]1CCN(c2ccc(N3CCC4(CCNCC4)C3=O)cc2)C1.Cl` [Example 47, 2-{4-[3-((2S,3′S)-2-Methyl-piperidin-1-yl)-pyrrolidin-1-yl]-phenyl}-2,8-diaza-spiro[4.5]decan-1-one Hydrochloride] are 0.4 nM and −17%.
Turning to `Cc1cc(N2CC[C@H](N3CCC[C@@H]3C)C2)ccc1N1CCCC2(CCN(C(C)C)CC2)C1=O` [Example 32, 9-Isopropyl-2-[2-methyl-4-((2S,3′S)-2-methyl-[1,3′]bipyrrolidinyl-1′-yl)-phenyl]-2,9-diaza-spiro[5.5]undecan-1-one], the affinity at rhesus H3 receptor [1] corresponds to a Ki of 0.4 nM. Also, on rhesus H3 receptor [2], the “Inverse Agonism: % inhibition” value is on record as −14%.
On the same counts, the results for `C[C@H]1CCCN1[C@H]1CCN(c2ccc(N3CCC4(CCN(C(=O)c5ccc6ccccc6c5)CC4)C3=O)c(C(F)(F)F)c2)C1` [Example 62, 2-[4-((2S,3′S)-2-Methyl-[1,3′]bipyrrolidinyl-1′-yl)-2-trifluoromethyl-phenyl]-8-(naphthalene-2-carbonyl)-2,8-diaza-spiro[4.5]decan-1-one] are 8.1 nM and −19%.
On the same counts, the results for `C[C@H]1CCCCN1[C@H]1CCN(c2ccc(N3CCC4(CCN(C(=O)C5CCOCC5)CC4)C3=O)cc2)C1` [Example 54, 2-{4-[3-((2S,3′S)-2-Methyl-piperidin-1-yl)-pyrrolidin-1-yl]-phenyl}-8-(tetrahydro-pyran-4-carbonyl)-2,8-diaza-spiro[4.5]decan-1-one] are 3.3 nM and −24%.
In turn, `Cc1cc(N2CC[C@H](N3CCC[C@@H]3C)C2)ccc1N1CCC2(CCN(C(=O)OC(C)(C)C)CC2)C1=O` [Example 4, 2-[2-Methyl-4-((2S,3′S)-2-methyl-[1,3′]bipyrrolidinyl-1′-yl)-phenyl]-1-oxo-2,8-diaza-spiro[4.5]decane-8-carboxylic acid tert-butyl ester] had a Ki on rhesus H3 receptor [1] of 43 nM. On rhesus H3 receptor [2], the “Inverse Agonism: % inhibition” value is given as −31%.
On the same counts, the results for `C[C@H]1CCCN1[C@H]1CCN(c2ccc(N3CCCC4(CCN(C(=O)c5ccccc5)CC4)C3=O)cc2)C1` [Example 28, 9-Benzoyl-2-[4-((2S,3′S)-2-methyl-[1,3′]bipyrrolidinyl-1′-yl)-phenyl]-2,9-diaza-spiro[5.5]undecan-1-one] are 0.5 nM and −15%.
On the same counts, the results for `C[C@H]1CCCCN1[C@H]1CCN(c2ccc(N3CCC4(CCN(CC5CCCCC5)CC4)C3=O)c(C(F)(F)F)c2)C1` [Example 58, 8-Cyclohexyl methyl-2-{4-[3-((2S,3′S)-2-methyl-piperidin-1-yl)-pyrrolidin-1-yl]-2-trifluoromethyl-phenyl}-2,8-diaza-spiro[4.5]decan-1-one] are 0.15 nM and −19%.
On the same counts, the results for `Cc1cc(N2CC[C@H](N3CCC[C@H]3C)C2)ccc1N1CCC2(CCNCC2)C1=O.Cl` [Example 8, 2-[2-Methyl-4-((2R,3′S)-2-methyl-[1,3′]bipyrrolidinyl-1′-yl)-phenyl]-2,8-diaza-spiro[4.5]decan-1-one Hydrochloride] are 0.8 nM and −26%.
Compound `C[C@H]1CCCN1C1CCN(c2ccc(N3CCC4(CCNCC4)C3=O)c(F)c2)CC1.Cl` [Example 46, 2-{4-[4-(2S-2-Methyl-pyrrolidin-1-yl)-piperidin-1-yl]-2-fluoro-phenyl}-2,8-diaza-spiro[4.5]decan-1-one Hydrochloride] came in with an inhibitory constant (Ki) on rhesus H3 receptor [1] of 0.1 nM. Further, at rhesus H3 receptor [2], the “Inverse Agonism: % inhibition” value is reported as −24%.
Compound `C[C@H]1CCCN1C1CCN(c2ccc(N3CCC4(CCNCC4)C3=O)cc2)CC1.Cl` [Example 44, 2-{4-[4-(2S-2-Methyl-pyrrolidin-1-yl)-piperidin-1-yl]-phenyl}-2,8-diaza-spiro[4.5]decan-1-one Hydrochloride] displayed a Ki on rhesus H3 receptor [1] of 0.1 nM. For the same compound, the “Inverse Agonism: % inhibition” value at rhesus H3 receptor [2] is reported as −19%.
For `C[C@H]1CCCCN1[C@H]1CCN(c2ccc(N3CCC4(CCN(C(=O)OC(C)(C)C)CC4)C3=O)c(C(F)(F)F)c2)C1` [Example 42, 2-{4-[3-((2S,3′S)-2-Methyl-piperidin-1-yl)-pyrrolidin-1-yl]-2-trifluoromethyl-phenyl}-1-oxo-2,8-diaza-spiro[4.5]decane-8-carboxylic acid tert-butyl ester], in that order: 64 nM and −15%.
Consider `Cc1cc(N2CC[C@@H](N3CCC[C@H]3C)C2)ccc1N1CCC2(CCNCC2)C1=O.Cl` [Example 7, 2-[2-Methyl-4-((2R,3′R)-2-methyl-[1,3′]bipyrrolidinyl-1′-yl)-phenyl]-2,8-diaza-spiro[4.5]decan-1-one Hydrochloride], for which the inhibitory constant (Ki) on rhesus H3 receptor [1] came out at 15 nM. At rhesus H3 receptor [2], the “Inverse Agonism: % inhibition” value was −22%.
